{"source": "paper PMC8451604", "about": "“Rational formulation engineering of fraxinellone utilizing 6-O-α-D-maltosyl-β-cyclodextrin for enhanced oral bioavailability and hepatic fibrosis therapy” (Drug Delivery, 2021)", "key": {"[1]": {"experiment": "Blood biochemical assay (hematological parameters)", "format": "in vivo, Kunming male mice", "conditions": "mice", "description": "(§1) The Kunming male mice (weight of 28–30 g) were divided into 10 groups (n = 10): normal group, Frax or G2-β-CD-Frax treatment groups with a Frax dose of 5, 10, and 20 mg/kg, respectively, G2-β-CD solution treatment (equivalent to 20 mg/kg of G2-β-CD-Frax) group. Drug treatment continued every day for 7 weeks. One day after the last administration, blood and major tissues (heart, liver, spleen, lung, and kidney) were obtained from the blank group and drug-treated groups (20 mg/kg) for histological examination. The whole blood was directly analyzed using an automatic blood cell analyzer to obtain hematological parameters. The collected tissues were subjected to histological examination."}, "[2]": {"experiment": "Phase solubility study of Frax with CDs", "format": "physicochemical", "conditions": "37 °C, from phase solubility curves", "description": "Frax was excessively mixed with increasing molar concentrations (0–350.00 mM) of each CD aqueous solution. […] The samples were subjected to HPLC analysis after centrifugation (4024.8 g, 10 min). Phase solubility profiles were plotted by monitoring Frax concentration as a function of the molar concentration of each CD. Based on the phase solubility curves, we calculated the apparent stability constants (Kc, L/mol) according to Equation (1): (1) Kc=Slope/S0(1−Slope) where S0 is the water solubility of Frax at equilibrium."}, "Caco-2 cells": {"test_system": "Caco-2 cells", "experiment": "Cytotoxicity in Caco-2 cells (MTT assay)", "format": "cell-based", "conditions": "4 h", "description": "(§2) Cytotoxicity effects and cellular uptake ability of Frax, CDs, and CDs-Frax complexes were examined using Caco-2 cells. […] Each CD solution was also used to determine whether the cell toxicity was caused by Frax or CDs. For cellular uptake studies, Caco-2 cells were treated with Frax and CDs-Frax (100 μg/mL) for 0.5, 1, and 2 h, respectively. For P-gp inhibition evaluation, the cells were pretreated with verapamil at a concentration of 100 μg/mL and further treated with each drug or formulation. Thereafter, the cells were washed and replenished with fresh PBS (300 μL). The cell lysate was prepared by three cycles of freeze-thaw. Protein concentration in the samples was quantified by the BCA kit while the Frax concentration was determined by HPLC."}, "[3]": {"experiment": "Safety evaluation for seven weeks, histological examination (H&E)", "format": "in vivo, Kunming male mice", "conditions": "mice, oral daily for 7 weeks, 20 mg/kg or equivalent G2-β-CD", "description": "as §1"}, "[4]": {"experiment": "Cytotoxicity in Caco-2 cells (MTT assay)", "format": "cell-based", "conditions": "human, Caco-2 cells; Caco-2, 300 μg/mL, 4 h; read-out: cell viability (cells remained viable)", "description": "as §2"}, "[5]": {"conditions": "7 weeks, colchicine group (0.2 mg/kg), in % (unit assumed)"}, "[6]": {"conditions": "7 weeks, colchicine group (0.2 mg/kg), in fL (unit assumed)"}}}
{"compound": "COc1cc2c(c(OC)c1OC)-c1ccc(OC)c(=O)cc1[C@@H](NC(C)=O)CC2", "note": "[Colchicine, colchicine, reference compound]", "values": [{"measurement": "MCHC (mean corpuscular hemoglobin concentration)", "setting": "[1]; 7 weeks", "result": "341.86 ± 9.91"}, {"measurement": "PDW (platelet distribution width)", "setting": "[1]; 7 weeks", "result": "14.99 ± 0.22"}, {"measurement": "PLT (platelet)", "setting": "[1]; 7 weeks, colchicine group (0.2 mg/kg), in 10^9/L (unit assumed)", "result": "1363.86 ± 333.63"}, {"measurement": "HCT (haematocrit)", "setting": "[1]; [5]", "result": "39.06 ± 2.62"}, {"measurement": "RDW-CV (red cell volume distribution width)", "setting": "[1]; [5]", "result": "16.24 ± 1.60"}, {"measurement": "MCV (mean cell volume)", "setting": "[1]; [6]", "result": "43.09 ± 2.97"}, {"measurement": "MPV (meanplateletvolume)", "setting": "[1]; [6]", "result": "6.80 ± 0.51"}, {"measurement": "RDW-SD", "setting": "[1]; [6]", "result": "29.86 ± 4.02"}, {"measurement": "HGB (hemoglobin)", "setting": "[1]; 7 weeks, colchicine group (0.2 mg/kg), in g/L (unit assumed)", "result": "133.57 ± 9.50"}, {"measurement": "MCH (mean corpuscular hemoglobin)", "setting": "[1]; 7 weeks, colchicine group (0.2 mg/kg), in pg (unit assumed)", "result": "14.71 ± 0.70"}, {"measurement": "WBC (white blood cell)", "setting": "[1]; 7 weeks, in 10^9/L (unit assumed)", "result": "9.61 ± 4.41"}, {"measurement": "RBC (red blood cell)", "setting": "[1]; 7 weeks, in 10^12/L (unit assumed)", "result": "9.13 ± 1.01"}]}
{"compound": "OC[C@H]1O[C@H](O[C@H]2[C@H](O)[C@@H](O)[C@@H](OC[C@H]3O[C@@H]4O[C@H]5[C@H](O)[C@@H](O)[C@@H](O[C@H]6[C@H](O)[C@@H](O)[C@@H](O[C@H]7[C@H](O)[C@@H](O)C(O[C@H]8[C@H](O)[C@@H](O)[C@@H](O[C@H]9[C@H](O)[C@@H](O)[C@@H](O[C@H]%10[C@H](O)[C@@H](O)[C@@H](O[C@H]3[C@H](O)[C@H]4O)O[C@@H]%10CO)O[C@@H]9CO)O[C@@H]8CO)O[C@@H]7CO)O[C@@H]6CO)O[C@@H]5CO)O[C@@H]2CO)[C@H](O)[C@@H](O)[C@@H]1O", "note": "[G2-β-CD, 6-O-α-D-maltosyl-β-cyclodextrin]", "values": [{"measurement": "apparent stability constant (Kc) for Frax complexation", "setting": "[2]", "result": 997.68, "unit": "M⁻¹"}, {"measurement": "cell viability (cells remained viable)", "setting": "Caco-2 cells; Caco-2, 300 μg/mL", "result": "over 85%"}, {"measurement": "H&E staining of major tissues", "setting": "[3]", "result": "no inflammation and no cellular damage"}, {"measurement": "changes in blood biochemical assay (in words)", "setting": "[1]; oral daily for 7 weeks", "result": "no obvious changes"}]}
{"compound": "CC(O)COC[C@H]1O[C@@H]2O[C@H]3[C@H](O)[C@@H](O)[C@@H](O[C@H]4[C@H](O)[C@@H](O)[C@@H](O[C@H]5[C@H](O)[C@@H](O)[C@@H](O[C@H]6[C@H](O)[C@@H](O)[C@@H](O[C@H]7[C@H](O)[C@@H](O)[C@@H](O[C@H]8[C@H](O)[C@@H](O)[C@@H](O[C@H]1[C@H](O)[C@H]2O)O[C@@H]8COCC(C)O)O[C@@H]7COCC(C)O)O[C@@H]6COCC(C)O)O[C@@H]5COCC(C)O)O[C@@H]4COCC(C)O)O[C@@H]3COCC(C)O", "note": "(stereo partly drawn) [HP-β-CD, 2-hydroxypropyl-β-cyclodextrin]", "values": [{"measurement": "apparent stability constant (Kc) for Frax complexation", "setting": "[2]", "result": 807.32, "unit": "M⁻¹"}, {"measurement": "viability at 4 h, 300 μg/mL", "setting": "[4]", "result": "> 85", "unit": "%"}]}
{"compound": "OC[C@H]1O[C@@H]2O[C@H]3[C@H](O)[C@@H](O)[C@@H](O[C@H]4[C@H](O)[C@@H](O)[C@@H](O[C@H]5[C@H](O)[C@@H](O)[C@@H](O[C@H]6[C@H](O)[C@@H](O)[C@@H](O[C@H]7[C@H](O)[C@@H](O)[C@@H](O[C@H]8[C@H](O)[C@@H](O)[C@@H](O[C@H]1[C@H](O)[C@H]2O)O[C@@H]8CO)O[C@@H]7CO)O[C@@H]6CO)O[C@@H]5CO)O[C@@H]4CO)O[C@@H]3CO", "note": "[β-CD, β-cyclodextrin]", "values": [{"measurement": "apparent stability constant (Kc) for Frax complexation", "setting": "[2]", "result": 109.34, "unit": "M⁻¹"}]}
{"compound": "Sulfobutyl ether-β-cyclodextrin [SBE-β-CD]", "values": [{"measurement": "apparent stability constant (Kc) for Frax complexation", "setting": "[2]", "result": 168.20, "unit": "M⁻¹"}, {"measurement": "cell viability", "setting": "Caco-2 cells; Caco-2, 200 and 300 μg/mL", "result": "lower than 80%"}]}
